Columns and labels:
[1] = format: physicochemical; conditions: pH 6
From the text: Unfortunately, a suitable reversed-phase iTLC system for the ligands mcp-M-PSMA and mcp-D-PSMA was not found so far to determine the radiochemical yields. The resolution of our standard system was not efficient, most likely due to the bigger size of these molecules compared to the basic chelators, different protonation steps and possible conformational structures. […] Additionally, the stability of the ^225Ac-labeled conjugates in acetate buffer was investigated by HPLC analyses over a period of ten days.
Actinium-225 was purchased as a 0.1 M HCl solution from ITM Munich and used without purification. Stem solutions of all ligands were prepared in concentrations of 10^−2 M and diluted to 10^−6 M using 0.2 M ammonium acetate buffer at pH 6. For concentration-dependent labeling experiments, 10 µL of each ligand stem solution was incubated with 100 kBq of actinium-225 (1–5 µL) and the total volume was adjusted to 100 µL with 0.2 M ammonium acetate buffer at pH 6. For stability analyses, 50 µL of the buffer volume were replaced by 50 µL of 0.2 M ascorbic acid or 50 µL of 2,5-dihydroxy benzoic acid, respectively. […]
All samples were incubated for one hour at room temperature and analyzed afterward. […] Radioactivity was measured in Isomed 2100 dose calibrator. Low radioactivity count rates were determined in Isomed 2160 sodium iodide detector. […]

[2] = 225Ac-labeling of ligands in serial dilution, radiochemical yield and 7-day stability by TLC; format: physicochemical; conditions: 100 kBq actinium-225, 0.2 M ammonium acetate buffer pH 6, after seven days; for RCY NP (7 d): normal phase TLC, silica, 50 mM EDTA pH 7; for RCY RP (7 d): reversed-phase TLC, Alugram RP-CN, acetonitrile/water 7/3
Method: To compare the efficiency of the synthesized chelators and their conjugates, 100 kBq of actinium-225 were incubated with each ligand at different concentrations (10^−5 M; 10^−6 M; 10^−7 M). The radiochemical yield was determined after one hour of reaction time using normal phase and reversed-phase TLC. Whereas one TLC-system was designed to move free actinium-225 with the solvent front, the other system was developed only to move the actinium-225 labeled complexes. Concentration-dependent radiochemical yields for all ligands and 7-day-longterm yields, which were calculated using both TLC systems, are presented in Table 1.
Actinium-225 was purchased as a 0.1 M HCl solution from ITM Munich and used without purification. Stem solutions of all ligands were prepared in concentrations of 10^−2 M and diluted to 10^−6 M using 0.2 M ammonium acetate buffer at pH 6. For concentration-dependent labeling experiments, 10 µL of each ligand stem solution was incubated with 100 kBq of actinium-225 (1–5 µL) and the total volume was adjusted to 100 µL with 0.2 M ammonium acetate buffer at pH 6. For stability analyses, 50 µL of the buffer volume were replaced by 50 µL of 0.2 M ascorbic acid or 50 µL of 2,5-dihydroxy benzoic acid, respectively. Labeling for cell-binding studies was performed using 1.5 MBq of actinium-225 and 4 nmol of the respective PSMA ligand in a total volume of 400 µL adjusted with 0.2 M ammonium acetate buffer at pH 6. Radiolabeling for cell survival studies and all in vivo experiments were performed using 1.5 MBq of actinium-225 and 3.3 nmol of the respective ligand.
All samples were incubated for one hour at room temperature and analyzed afterward. TLC analyses were carried out in two different systems, normal phase on silica plates in 50 mM EDTA solution (pH 7) and reversed-phase on Alugram RP-CN in acetonitrile/water (7/3). TLC plates were imaged using a phosphoimager Amersham Typhoon 5 Scanner (Cytiva Europe GmbH, Freiburg, Germany) after a decay time of at least 7 h. Analytical HPLC was performed using a Jasco HPLC system with RITA analyzer (Elysia-raytest GmbH, Straubenhardt, Germany) for gamma detection on a Phenomenex Phenyl-Hexyl column in water/acetonitrile (+ 0.1% TFA). Radioactivity was measured in Isomed 2100 dose calibrator. Low radioactivity count rates were determined in Isomed 2160 sodium iodide detector. More precise measurements and nuclide identification were carried out on an activity- and efficiency-calibrated HPGe detector CryoPulse 5 (Canberra).

logD7.4 determination = format: physicochemical; conditions: pH 7.4, 225Ac complex
LNCaP cells [3] = experiment: Colony formation assay; format: cell-based, human; conditions: for Percentage amount of colonies referred to the non-radioactive control: 8 days colony growth
Method: LNCaP cells were plated in 6-well cell culture microplates (Greiner Bio-One GmbH, Frickenhausen, Germany) at a density of 6 × 10^3 cells/2 mL/well. […] After 1 or 4 h of incubation, the cell culture media was removed and fresh media was added to each well. Plates were then incubated at 37 °C for 8 days and re-fed every 3 to 4 days. […] The plates were scanned with an Amersham Typhoon 5 Scanner (Cytiva Europe GmbH, Freiburg, Germany) and the colonies were counted using the Image-Quant TL software (Version 8.1, Cytiva Europe GmbH, Freiburg, Germany).

LNCaP cells [4] = experiment: CyQUANT direct cell proliferation assay; format: cell-based, human; conditions: highest applied dose, 4 h of exposure, cell number 24 h after treatment by DNA staining
Method: The treatment response on cellular proliferation was assessed using the CyQUANT direct cell proliferation assay (Thermo Fisher Scientific, Waltham, MA, USA). For this purpose, LNCaP cells were plated in black 96 well cell culture microplates (Greiner Bio-One GmbH, Frickenhausen, Germany) at a density of 2 × 10^4 cells/0.05 mL/well. […] After 1 or 4 h of incubation, the cell culture media was removed and fresh media was added to each well. Cell numbers were subsequently determined 24 h later as per the manufacturer’s protocol. The fluorescence intensity was measured with the Varioskan Flash microplate reader (Thermo Fisher Scientific, Waltham, MA, USA).

LNCaP tumor-bearing mice = experiment: Biodistribution in LNCaP tumor-bearing SCID mice; format: in vivo, mouse
From the text: The SCID male mice (ENVIGO, Indianapolis, IN, USA) 6–8 weeks old were subcutaneously injected into the right flank with 10 × 10^6 LNCaP cells (ATCC, Manassas, VA, USA) mixed with Matrigel Matrix (Corning, Corning, NY, USA) at a 1:1 ratio. The tumor growth was continuously monitored by caliper-based measurements. When the tumor volume reached 200–300 mm^3 (i.e., 5–6 weeks after the inoculation of cells), the mice were used for biodistribution studies. The experimental animals were housed in a specific-pathogen-free animal facility. All experiments with animals were performed in accordance with appropriate legal norms (Czech Law No. 246/1992) and with the approval of the Ministry of Education, Youth and Sports (MSMT-35035/2019-3) and approval of the Ethical Committee of Faculty of Medicine and Dentistry, Palacky University in Olomouc. The number of animals was reduced as much as possible (n = 4 per group and time point) for all in vivo experiments.
For biodistribution studies, the radiotracers were diluted with saline. The prepared radiotracers were applied retro-orbitally (r.o.) to the experimental animals at a dose of 50 kBq per mouse corresponding to 10 pmol of the peptide. The tracer injection was carried out under 2% isoflurane anesthesia (FORANE, Abbott Laboratories, Abbott Park, IL, USA) to minimize animal suffering and to prevent animal motion. The mice were sacrificed by cervical dislocation 10 min, 60 min and 24 h post-injection and organs of interest (blood, spleen, pancreas, stomach, intestine, kidneys, liver, heart, lungs, muscle, bone and tumor) were collected. The samples were weighed and the activity was measured on an automatic gamma counter. The radiotracer accumulation was expressed as a percentage of injected dose per gram (%ID/g) of the corresponding organ.

[5] = 1 h incubation time, 0.05 kBq/mL
[6] = 1 h incubation time, 0.5 kBq/mL
[7] = 4 h incubation time, 0.05 kBq/mL
[8] = 4 h incubation time, 0.5 kBq/mL
[9] = LNCaP tumor-bearing SCID mice, 24 h p.i.

Structure (SMILES)	RCY NP (7 d) ([2]; ligand 10^−5 M) [%]	RCY RP (7 d) ([2]; ligand 10^−5 M) [%]	RCY NP (7 d) ([2]; ligand 10^−6 M) [%]	RCY RP (7 d) ([2]; ligand 10^−6 M) [%]	RCY NP (7 d) ([2]; ligand 10^−7 M) [%]	RCY RP (7 d) ([2]; ligand 10^−7 M) [%]	also measured
O=C(O)CC[C@H](NC(=O)N[C@H](CCCCNC(=O)[C@@H](Cc1ccc2ccccc2c1)NC(=O)C1CCC(CNC(=O)CCCCn2cc(COc3cc(CN4CCOCCOCCN(Cc5cccc(C(=O)O)n5)CCOCCOCC4)nc(C(=O)O)c3)nn2)CC1)C(=O)O)C(=O)O (mixture of isomers) [mcp-M-PSMA, (3RS,10RS,14S)-1-((1s,4S)-4-((5-(4-(((2-Carboxy-6-((16-((6-carboxypyridin-2-yl)methyl)-1,4,10,13-tetraoxa-7,16-diazacyclooctadecan-7-yl)methyl)pyridin-4-yl)oxy)methyl)-1H-1,2,3-triazol-1-yl)pentanamido)methyl)cyclohexyl)-3-(naphthalen-2-ylmethyl)-1,4,12-trioxo-2,5,11,13-tetraazahexadecane-10,14,16-tricarboxylic acid]							stable in acetate buffer [1]: at least 48 h
O=C([O-])c1cccc(CN2CCOCCOCCN(Cc3cccc(C(=O)[O-])n3)CCOCCOCC2)n1.[225Ac+3] [[^225Ac]Ac-macropa, reference compound]	99	99	99	99	99	99	
O=C(O)CC[C@H](NC(=O)N[C@@H](CCCCNC(=O)[C@H](Cc1ccc2ccccc2c1)NC(=O)[C@H]1CC[C@H](CNC(=O)CCCCn2cc(COc3cc(CN4CCOCCOCCN(Cc5cc(OCc6cn(CCCCC(=O)NC[C@H]7CC[C@H](C(=O)N[C@@H](Cc8ccc9ccccc9c8)C(=O)NCCCC[C@H](NC(=O)N[C@@H](CCC(=O)O)C(=O)O)C(=O)O)CC7)nn6)cc(C(=O)O)n5)CCOCCOCC4)nc(C(=O)O)c3)nn2)CC1)C(=O)O)C(=O)O [[^225Ac]Ac-mcp-D-PSMA, metal not drawn]	99		99		95		logD7.4 (logD7.4 determination): −2.5 ± 0.1; inhibition of colony formation (LNCaP cells [3]; 5 and 50 kBq/mL, 4 h): ~100%; Percentage amount of colonies referred to the non-radioactive control (LNCaP cells [3]; [5]): 75.0%; Percentage amount of colonies referred to the non-radioactive control (LNCaP cells [3]; [6]): 3.8%; Percentage amount of colonies referred to the non-radioactive control (LNCaP cells [3]; 1 h incubation time, 5 kBq/mL): 3.1%; Percentage amount of colonies referred to the non-radioactive control (LNCaP cells [3]; 1 h incubation time, 50 kBq/mL): 0.8%; Percentage amount of colonies referred to the non-radioactive control (LNCaP cells [3]; [7]): 49.1%; Percentage amount of colonies referred to the non-radioactive control (LNCaP cells [3]; [8]): 6.2%; Percentage amount of colonies referred to the non-radioactive control (LNCaP cells [3]; 4 h incubation time, 5 kBq/mL): 0.5%; Percentage amount of colonies referred to the non-radioactive control (LNCaP cells [3]; 4 h incubation time, 50 kBq/mL): 0.4%; decrease of relative cell number (LNCaP cells [4]): approximately one third; Tumor-to-blood ratio (LNCaP tumor-bearing mice; mouse, in vivo): 158.11; tumor-to-muscle ratio (LNCaP tumor-bearing mice; mouse, in vivo): 275.77
C#CCOc1cc(CN2CCOCCOCCN(Cc3cc(OCC#C)cc(C(=O)[O-])n3)CCOCCOCC2)nc(C(=O)[O-])c1.[225Ac+3] [[^225Ac]Ac-mcp-D-click]	99	99	99	94	50	40	
O=C(O)CCCCn1cc(COc2cc(CN3CCOCCOCCN(Cc4cccc(C(=O)[O-])n4)CCOCCOCC3)nc(C(=O)[O-])c2)nn1.[225Ac+3] [[^225Ac]Ac-mcp-M-COOH]	99	99	99	99	99	96	
O=C(O)CC[C@H](NC(=O)N[C@@H](CCCCNC(=O)[C@H](Cc1ccc2ccccc2c1)NC(=O)[C@H]1CC[C@H](CNC(=O)CCCCn2cc(COc3cc(CN4CCOCCOCCN(Cc5cccc(C(=O)O)n5)CCOCCOCC4)nc(C(=O)O)c3)nn2)CC1)C(=O)O)C(=O)O [[^225Ac]Ac-mcp-M-PSMA, metal not drawn]	99		99		99		logD7.4 (logD7.4 determination): −2.8 ± 0.1; Percentage amount of colonies referred to the non-radioactive control (LNCaP cells [3]; [5]): 107.2%; Percentage amount of colonies referred to the non-radioactive control (LNCaP cells [3]; [6]): 91.8%; Percentage amount of colonies referred to the non-radioactive control (LNCaP cells [3]; 1 h incubation time, 5 kBq/mL): 19.4%; Percentage amount of colonies referred to the non-radioactive control (LNCaP cells [3]; 1 h incubation time, 50 kBq/mL): 1.4%; Percentage amount of colonies referred to the non-radioactive control (LNCaP cells [3]; [7]): 116.8%; Percentage amount of colonies referred to the non-radioactive control (LNCaP cells [3]; [8]): 57.2%; Percentage amount of colonies referred to the non-radioactive control (LNCaP cells [3]; 4 h incubation time, 5 kBq/mL): 5.3%; Percentage amount of colonies referred to the non-radioactive control (LNCaP cells [3]; 4 h incubation time, 50 kBq/mL): 0.9%; decrease of relative cell number (LNCaP cells [4]): approximately one third; Tumor-to-blood ratio (LNCaP tumor-bearing mice; [9]): 188.42; tumor-to-muscle ratio (LNCaP tumor-bearing mice; [9]): 310.82
C#CCOc1cc(CN2CCOCCOCCN(Cc3cccc(C(=O)[O-])n3)CCOCCOCC2)nc(C(=O)[O-])c1.[225Ac+3] [[^225Ac]Ac-mcp-M-click]	99	99	99	99	58	55	

Reference: article PMC8073976, “Towards Targeted Alpha Therapy with Actinium-225: Chelators for Mild Condition Radiolabeling and Targeting PSMA—A Proof of Concept Study” (Cancers, 2021)
